Measurements as given in publication PMC8794255, “Small molecule inhibitor of Igf2bp1 represses Kras and a pro-oncogenic phenotype in cancer cells” (RNA Biology, 2021).

Key:
[1] = system: Kras protein in H1299 cells; assay: Western blot of Kras protein in H1299 cells; format: cell-based, human; settings: H1299, 10 and 20 μM 7773, 48 hours
Protocol: Western blots were performed as described. For fluorescent westerns, cell lysates were prepared with phosphatase inhibitors (β-Glycerophosphate and Sodium orthovanadate) and a protease inhibitor (cOmplete™, Mini Protease Inhibitor Cocktail, Roche 04693124001), membranes were read using a Li-Core Odyssey laser scanner, and results analysed using Image Studio Lite software.
The following primary antibodies were used: mouse anti-total ERK (p44/42 MAPK (Erk1/2) L34 F12 Cell Signalling 4696s), mouse anti-Kras (CPTC-KRAS4B-2, DSHB) rabbit anti-dpERK, (p44/42 MAPK, Cell Signalling 4370), rabbit anti-alpha/beta tubulin (Cell Signalling 2148), goat anti-rabbit IgG-HRP (Jackson), goat anti-mouse IgG-HRP (Jackson). Secondary antibodies for fluorescent westerns: donkey anti-mouse 800 (Rockland 610–732-124), goat anti-rabbit 680 (Molecular Probes A21076).

[2] = system: LKR-M cells overexpressing human Igf2bp1-GFP; assay: Wound healing assay, LKR-M cells expressing human Igf2bp1-GFP; format: cell-based, mouse; settings: 20 μM 7773 vs DMSO
Protocol: Cells were seeded in 96 IncuCyte® ImageLock plates (20X10^3 cells per well) for 24 hours, to a near confluency of 95%, before the addition of increasing concentrations of compound. After a further 24 hours, wells were scratched using the IncuCyte® 96-well WoundMaker Tool, and the cells cultured for an additional 48 hours using the IncuCyte® S3 Live-Cell Analysis System (Essen BioScience). The plate was imaged at increments of 120 minutes for a period of 48 hours, and then analysed for relative wound healing.

[3] = system: H1299 cells; assay: Growth in soft agar, H1299; format: cell-based, human; settings: H1299, 20 μM 7773
Protocol: Cells were grown for 12 hours in 6 well plates prior to incubation with the compound or DMSO for an additional 48 hours, 2000 cells were suspended in 0.3% agar-complete medium and then seeded in triplicates onto a 0.6% agar-complete medium base in a 6 well plate. After one week, the colonies were fed with 0.3% agar-complete medium, and after 2 additional weeks, imaged and quantified.

[4] = target: T1, G9a (Homo sapiens, UniProt Q96KQ7); assay: G9a FP assay (SAH-FITC probe); format: biochemical
T1 sequence (Q96KQ7 1-1210): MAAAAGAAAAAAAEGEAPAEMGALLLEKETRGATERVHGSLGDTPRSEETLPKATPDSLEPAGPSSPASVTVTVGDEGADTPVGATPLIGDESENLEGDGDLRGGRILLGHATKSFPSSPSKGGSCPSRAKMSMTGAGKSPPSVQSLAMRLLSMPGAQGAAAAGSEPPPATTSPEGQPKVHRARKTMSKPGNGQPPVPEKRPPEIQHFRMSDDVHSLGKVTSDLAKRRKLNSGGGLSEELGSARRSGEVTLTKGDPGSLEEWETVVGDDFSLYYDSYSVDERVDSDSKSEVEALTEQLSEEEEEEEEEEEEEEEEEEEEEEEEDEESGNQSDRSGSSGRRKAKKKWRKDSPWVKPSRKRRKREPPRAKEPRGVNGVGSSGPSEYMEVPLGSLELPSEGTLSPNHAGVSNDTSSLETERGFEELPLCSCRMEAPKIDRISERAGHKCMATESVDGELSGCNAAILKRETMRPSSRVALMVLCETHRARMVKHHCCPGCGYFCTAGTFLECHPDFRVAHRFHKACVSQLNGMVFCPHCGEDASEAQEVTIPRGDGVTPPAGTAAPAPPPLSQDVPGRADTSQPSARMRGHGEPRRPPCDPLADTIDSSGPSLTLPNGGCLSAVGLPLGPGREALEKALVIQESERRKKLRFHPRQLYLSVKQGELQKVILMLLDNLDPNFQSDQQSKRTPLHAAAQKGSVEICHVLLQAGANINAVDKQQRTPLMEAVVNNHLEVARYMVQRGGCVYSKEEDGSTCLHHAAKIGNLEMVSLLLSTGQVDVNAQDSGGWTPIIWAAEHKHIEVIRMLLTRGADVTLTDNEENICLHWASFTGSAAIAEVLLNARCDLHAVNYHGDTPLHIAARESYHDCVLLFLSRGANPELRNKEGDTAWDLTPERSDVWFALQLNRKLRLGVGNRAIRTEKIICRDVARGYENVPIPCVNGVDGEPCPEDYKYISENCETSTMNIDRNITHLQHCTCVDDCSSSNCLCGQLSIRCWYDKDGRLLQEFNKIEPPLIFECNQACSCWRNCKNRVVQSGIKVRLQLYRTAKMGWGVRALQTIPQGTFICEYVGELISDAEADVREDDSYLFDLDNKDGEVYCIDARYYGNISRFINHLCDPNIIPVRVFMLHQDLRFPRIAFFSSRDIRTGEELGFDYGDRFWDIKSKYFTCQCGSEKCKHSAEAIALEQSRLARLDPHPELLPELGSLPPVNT
Protocol: For the small-molecule screen, compounds were obtained from the collection maintained at the Grand Israel National Center for Personalized Medicine, consisting of molecules purchased from commercial vendors. Labelled RNA (10 nM) was incubated with recombinant Igf2bp1 protein (400 nM) in FAM-RNA buffer (10 mM Tris pH 8.0, 75 mM KCl, 0.5 mM EDTA, 1 mM DTT, 0.0188 U/μL RNAsin, 0.0005 μg/mL heparin, 0.0001 μg/μL tRNA, 0.01% Triton X-100, 3 mM MgCl2, 0.05% IGEPAL) at room temperature for 15 min. 7 μL of this reaction mix was aliquoted with GNF WDII (USA) into wells of 1536 well plates, with a final concentration of 20 μM compound or DMSO. The plates were spun down and read in a BMG Pherastar FS (Germany) plate reader, in FP mode with a 485/520/520 polarization filter, calibrated to 35 mP for free fluorescein with similar total intensity as experimental samples. […]

[5] = system: wild-type luciferase in RKO cells; assay: Control (wild-type) luciferase in RKO cells; format: cell-based; settings: 50 μM 7773
Protocol: The RKO cells were seeded in DMEM with 10% calf serum 24 hrs prior to the transfection. Transfection was done using Lipofectamine 2000 with reporter plasmids and Renilla-luciferase expressing vector (as internal control). After 24 hrs, cells were lysed using passive lysis buffer (Promega catalogue # E1941). The lysates were cleared by centrifugation and its 20 μL volume was mixed with 100 μL of luciferase substrate solution for luminescence recording which was followed by addition of 100 μL of Stop-glo solution (Promega catalogue # E1910) with an additional luminescence reading. Both readings were detected by using GloMax 20/20 Luminometer (Promega), and the final value for each sample was the ratio of their two respective readings. To test the effects of 7773, transfected cells with reporter plasmids were washed with PBS after 24 hrs of transfection and incubated with medium containing 7773.

Effect on G9a catalysing methylation of a peptide [4]: almost no effect
SMILES: O=C(c1ccc(Cn2cnnn2)cc1)N1CCCC(Nc2ccc3c(c2)OCO3)C1 (centres unmarked) [compound 7773]
Kras protein level [1]: dose-dependent reduction
Effect on Igf2bp1-GFP-enhanced wound healing [2]: significantly inhibited
Ability to form colonies in soft agar [3]: dramatically inhibited
Effect on activity of wild-type luciferase [5]: did not affect
